Tests used:
interferon (α) (IFN-α) = assay: Cytokine induction in human cells: IFN-α secreted by PBMC into culture media (ELISA); assay type: cell-based; conditions: for minimal effective concentration / Maximal Response IFN / Minimum Effective Concentration IFN: human PBMC; for minimal effective concentration: lowest tested concentration inducing IFN-α over usually 20 pg/mL, median where more than one experiment, read-out: Minimum Effective Concentration (μM) IFN; for Maximal Response (pg/mL) IFN: maximal response in dose response curve, median; for Maximal Response IFN / Minimum Effective Concentration IFN: median where tested in more than one experiment
Description: (§1) Cytokine Induction in Human Cells
(§2) An in vitro human blood cell system is used to assess cytokine induction. Activity is based on the measurement of interferon (α) and tumor necrosis factor (α) (IFN-α and TNF-α, respectively) secreted into culture media as described by Testerman et. al. in “Cytokine Induction by the Immunomodulators Imiquimod and S-27609”, Journal of Leukocyte Biology, 58, 365-372 (September, 1995).
(§3) Blood Cell Preparation for Culture
(§4) Whole blood from healthy human donors is collected by venipuncture into vacutainer tubes or syringes containing EDTA. Peripheral blood mononuclear cells (PBMC) are separated from whole blood by density gradient centrifugation using HISTOPAQUE-1077 (Sigma, St. Louis, Mo.) or Ficoll-Paque Plus (Amersham Biosciences Piscataway, N.J.). Blood is diluted 1:1 with Dulbecco's Phosphate Buffered Saline (DPBS) or Hank's Balanced Salts Solution (HBSS). Alternately, whole blood is placed in Accuspin (Sigma) or LeucoSep (Oreiner Bio-One, Inc., Longwood, Fla.) centrifuge frit tubes containing density gradient medium. The PBMC layer is collected and washed twice with DPBS or HBSS and re-suspended at 4×10^6 cells/mL in RPMI complete. The PBMC suspension is added to 96 well flat bottom sterile tissue culture plates containing an equal volume of RPMI complete media containing test compound.
(§5) The compounds are solubilized in dimethyl sulfoxide (DMSO). The DMSO concentration should not exceed a final concentration of 1% for addition to the culture wells. The compounds are generally tested at concentrations ranging from 30-0.014 μM. Controls include cell samples with media only, cell samples with DMSO only (no compound), and cell samples with reference compound.
(§6) The solution of test compound is added at 60 μM to the first well containing RPMI complete and serial 3 fold dilutions are made in the wells. The PBMC suspension is then added to the wells in an equal volume, bringing the test compound concentrations to the desired range (usually 30-0.014 μM). The final concentration of PBMC suspension is 2×10^6 cells/mL. The plates are covered with sterile plastic lids, mixed gently and then incubated for 18 to 24 hours at 37° C. in a 5% carbon dioxide atmosphere.
(§7) Following incubation the plates are centrifuged for 10 minutes at 1000 rpm (approximately 200×g) at 4° C. The cell-free culture supernatant is removed and transferred to sterile polypropylene tubes. Samples are maintained at −30 to −70° C. until analysis. The samples are analyzed for IFN-α by ELISA and for TNF-α by IGEN/BioVeris Assay.
(§8) Interferon (α) and Tumor Necrosis Factor (α) Analysis
IFN-α concentration is determined with a human multi-subtype calorimetric sandwich ELISA (Catalog Number 41105) from PBL Biomedical Laboratories, Piscataway, N.J. Results are expressed in pg/mL.
(§9) In total, the data output of the assay consists of concentration values of TNF-α and IFN-α (y-axis) as a function of compound concentration (x-axis).
Analysis of the data has two steps. First, the greater of the mean DMSO (DMSO control wells) or the experimental background (usually 20 pg/mL for IFN-α and 40 pg/mL for TNF-α) is subtracted from each reading. If any negative values result from background subtraction, the reading is reported as “*”, and is noted as not reliably detectable. In subsequent calculations and statistics, “*”, is treated as a zero. Second, all background subtracted values are multiplied by a single adjustment ratio to decrease experiment to experiment variability. The adjustment ratio is the area of the reference compound in the new experiment divided by the expected area of the reference compound based on the past 61 experiments (unadjusted readings). […] The reference compound used is 2-[4-amino-2-ethoxymethyl-6,7,8,9-tetrahydro-α,α-dimethyl-1H-imidazo[4,5-c]quinolin-1-yl]ethanol hydrate (U.S. Pat. No. 5,352,784; Example 91) and the expected area is the sum of the median dose values from the past 61 experiments. […]

[1] = system: tumor necrosis factor (α) (TNF-α); assay: Cytokine induction in human cells: TNF-α secreted by PBMC into culture media (ORIGEN M-Series immunoassay); assay type: cell-based; parameters: key to Maximal Response (pg/mL) TNF / Maximal Response TNF: If any negative values result from background subtraction, the reading is reported as “*”, and is noted as not reliably detectable; conditions: for minimal effective concentration / Maximal Response TNF / Minimum Effective Concentration TNF: human PBMC; for minimal effective concentration: lowest tested concentration inducing TNF-α over usually 40 pg/mL, median where more than one experiment, read-out: Minimum Effective Concentration (μM) TNF; for Maximal Response (pg/mL) TNF: maximal response in dose response curve; for Maximal Response (pg/mL) TNF / Maximal Response TNF: median; for Minimum Effective Concentration TNF: median where tested in more than one experiment
Description: as §1, §2, §3, §4, §5, §6, §7, §8
The TNF-α concentration is determined by ORIGEN M-Series Immunoassay and read on an IGEN M-8 analyzer from BioVeris Corporation, formerly known as IGEN International, Gaithersburg, Md. The immunoassay uses a human TNF-α capture and detection antibody pair (Catalog Numbers AHC3419 and AHC3712) from Biosource International, Camarillo, Calif. Results are expressed in pg/mL.
as §9
Analysis of the data has two steps. First, the greater of the mean DMSO (DMSO control wells) or the experimental background (usually 20 pg/mL for IFN-α and 40 pg/mL for TNF-α) is subtracted from each reading. If any negative values result from background subtraction, the reading is reported as “*”, and is noted as not reliably detectable. In subsequent calculations and statistics, “*”, is treated as a zero. Second, all background subtracted values are multiplied by a single adjustment ratio to decrease experiment to experiment variability. The adjustment ratio is the area of the reference compound in the new experiment divided by the expected area of the reference compound based on the past 61 experiments (unadjusted readings). […]

[2] = Table 10, * = below experimental background level
[3] = Table 7, background-subtracted, reference-adjusted
[4] = Table 11, * = TNF below experimental background of 40 pg/mL
[5] = Table 12, * = below the experimental background of 40 pg/mL
[6] = Table 8, background-subtracted, reference-adjusted

| Structure (SMILES) | minimal effective concentration (interferon (α) (IFN-α); Table 10) | minimal effective concentration ([1]; Table 10) | Maximal Response TNF [1, 4] | Maximal Response IFN (interferon (α) (IFN-α); Table 11) | Minimum Effective Concentration IFN (interferon (α) (IFN-α); Table 11) | Minimum Effective Concentration TNF ([1]; Table 11) | also measured |
| --- | --- | --- | --- | --- | --- | --- | --- |
| CCCc1nc2c(N)nc3cc(-c4cncc(CO)c4)ccc3c2n1CC(C)(C)O [Analog 17] | 0.014 µM | 0.12 µM |  |  |  |  | Maximal Response (pg/mL) IFN (interferon (α) (IFN-α); [2]): 1079 pg/mL; Maximal Response (pg/mL) TNF [1, 2]: 16482 pg/mL |
| CCOCc1nc2c(N)nc3cc(-c4cccnc4)ccc3c2n1CC1CCN(C(=O)C(C)C)CC1 [Analog 18] | 0.12 µM | 0.37 µM |  |  |  |  | Maximal Response (pg/mL) IFN (interferon (α) (IFN-α); [2]): 2979 pg/mL; Maximal Response (pg/mL) TNF [1, 2]: 1449 pg/mL |
| Nc1nc2cc(-c3cccnc3)ccc2c2c1nc(CCO)n2CCCN1CCCC1=O [Example 160] | 30 µM | >30 µM |  |  |  |  | Maximal Response (pg/mL) IFN (interferon (α) (IFN-α); [2]): 109 pg/mL; Maximal Response (pg/mL) TNF [1, 2]: * |
| COCCc1nc2c(N)nc3cc(-c4ccccc4)ccc3c2n1CCCN1CCCC1=O [Analog 21] | 0.12 µM | 1.11 µM |  |  |  |  | Maximal Response (pg/mL) IFN (interferon (α) (IFN-α); [2]): 1880 pg/mL; Maximal Response (pg/mL) TNF [1, 2]: 201 pg/mL |
| COCCc1nc2c(N)nc3cc(-c4ccccc4)ccc3c2n1CC(C)(C)O [Analog 23] | 0.014 µM | 0.014 µM |  |  |  |  | Maximal Response (pg/mL) IFN (interferon (α) (IFN-α); [2]): 260 pg/mL; Maximal Response (pg/mL) TNF [1, 2]: 2296 pg/mL |
| CCCc1nc2c(N)nc3ccccc3c2n1CC(C)(C)NS(C)(=O)=O [Analog 3, N-[2-(4-Amino-2-propyl-1H-imidazo[4,5-c]quinolin-1-yl)-1,1-dimethylethyl]methanesulfonamide] |  |  | 9780 pg/mL |  |  |  | Maximal Response (pg/mL) IFN (interferon (α) (IFN-α); [3]): 832 pg/mL; Maximal Response (pg/mL) TNF [1, 3]: 7245 pg/mL |
| Cc1nc2c(N)nc3ccccc3c2n1CC(C)(C)NS(C)(=O)=O [Analog 1, N-[2-(4-Amino-2-methyl-1H-imidazo[4,5-c]quinolin-1-yl)-1,1-dimethylethyl]methanesulfonamide] |  |  |  |  |  |  | Maximal Response (pg/mL) IFN (interferon (α) (IFN-α); [3]): 1846 pg/mL; Maximal Response (pg/mL) TNF [1, 3]: 1518 pg/mL |
| CS(=O)(=O)NCCn1c(CCO)nc2c(N)nc3cccnc3c21 [Example 147, N-{2-[4-Amino-2-(2-hydroxyethyl)-1H-imidazo[4,5-c][1,5]naphthyridin-1-yl]ethyl}methanesulfonamide] |  |  |  |  |  |  | Maximal Response IFN (interferon (α) (IFN-α); Table 12): 49 pg/mL; Maximal Response TNF [1, 5]: * |
| COCCc1nc2c(N)nc3ccccc3c2n1CCNS(C)(=O)=O [Analog 72] |  |  | 8547 pg/mL | 5858 pg/mL | 0.014 µM | 0.04 µM |  |
| COCCc1nc2c(N)nc3ccccc3c2n1CCCNC(=O)NC(C)C [Analog 83] |  |  | 1259 pg/mL | 1289 pg/mL | 0.12 µM | 1.11 µM |  |
| CCc1nc2c(N)nc3ccccc3c2n1CC(C)(C)CNC(=O)Nc1ccccc1 [Analog 90] |  |  | 2098 pg/mL | 922 pg/mL | 0.014 µM | 0.12 µM |  |
| COCc1nc2c(N)nc3ccccc3c2n1CC(C)(C)NS(C)(=O)=O [Analog 47] |  |  | 7151 pg/mL | 1638 pg/mL | 0.37 µM | 3.33 µM |  |
| Cc1nc2c(N)nc3cccnc3c2n1CC(C)(C)O [Analog 126, 1-(4-amino-2-methyl-1H-imidazo[4,5-c][1,5]naphthyridin-1-yl)-2-methylpropan-2-ol] |  |  |  |  |  |  | Maximal Response IFN (interferon (α) (IFN-α); Table 12): 1952 pg/mL; Maximal Response TNF [1, 5]: 6519 pg/mL |
| CCCc1nc2c(N)nc3ccccc3c2n1CCNS(C)(=O)=O [Analog 70] |  |  | 11432 pg/mL | 2003 pg/mL | 30 µM | 10 µM |  |
| COCCc1nc2c(N)nc3ccccc3c2n1CCCCCCCCNS(C)(=O)=O [Analog 118] |  |  | 1853 pg/mL | 1914 pg/mL | 0.014 µM | 0.014 µM |  |
| CCOCc1nc2c(N)nc3ccccc3c2n1CC(C)(C)NS(C)(=O)=O [Analog 4, N-[2-(4-Amino-2-ethoxymethyl-1H-imidazo[4,5-c]quinolin-1-yl)-1,1-dimethylethyl]methanesulfonamide] |  |  | 10665 pg/mL | 1138 pg/mL |  |  | Maximal Response (pg/mL) IFN (interferon (α) (IFN-α); [3]): 889 pg/mL; Maximal Response (pg/mL) TNF [1, 3]: 10125 pg/mL |
| CC(C)Cn1c(CCO)nc2c(N)nc3cc(-c4cncc(CO)c4)ccc3c21 [Example 159] | 0.12 µM | 10 µM |  |  |  |  |  |
| Cc1ccc(C)c(S(=O)(=O)NCCCCn2c(CCO)nc3c(N)nc4ccccc4c32)c1 [Example 36] |  |  | * | 3316 pg/mL | 10 µM | >30 µM |  |
| Cc1nc2c(N)nc3ccccc3c2n1CCNS(C)(=O)=O [Analog 68] |  |  | 820 pg/mL | 1610 pg/mL | 0.12 µM | 10 µM |  |
| CC(C)(F)Cn1c(CO)nc2c(N)nc3cccnc3c21 [Example 551, [4-Amino-1-(2-fluoro-2-methylpropyl)-1H-imidazo[4,5-c][1,5]naphthyridin-2-yl]methanol] |  |  |  |  |  |  | Maximal Response IFN (interferon (α) (IFN-α); Table 12): 1833 pg/mL; Maximal Response TNF [1, 5]: 1922 pg/mL |
| CC(C)(O)Cn1c(CCO)nc2c(N)nc3cccnc3c21 [Example 149, 1-[4-Amino-2-(2-hydroxyethyl)-1H-imidazo[4,5-c][1,5]naphthyridin-1-yl]-2-methylpropan-2-ol] |  |  |  |  |  |  | Maximal Response (pg/mL) IFN (interferon (α) (IFN-α); [6]): 1849 pg/mL; Maximal Response IFN (interferon (α) (IFN-α); Table 12): 2063 pg/mL; Maximal Response (pg/mL) TNF [1, 6]: 342 pg/mL; Maximal Response TNF [1, 5]: 331 pg/mL |
| CCOCc1nc2c(N)nc3cc(-c4cccnc4)ccc3c2n1CCCCNC(=O)NC1CCCC1 [Analog 33] | 0.014 µM | 1.11 µM |  |  |  |  | Maximal Response (pg/mL) IFN (interferon (α) (IFN-α); [2]): 925 pg/mL; Maximal Response (pg/mL) TNF [1, 2]: 1618 pg/mL |
